# Results: patent US10092592B2, “Application of cyclic dinucleotide (cGAMP) in anti-tumor field” (FUDAN UNIVERSITY, priority 2014, dated 2018)
# Legend:
# Type in all cases: in vivo
# [1] = system: human pancreatic carcinoma cell SW1990; test: Subcutaneously transplanted tumor of human pancreatic carcinoma cell SW1990 in nude mice; conditions: SW1990 in BALB/c nude mice; for Average Tumor Weight: mean ± SD, n = 8
# Method: (§1) Anti-tumor effect of cGAMP (cyclized GMP-AMP) was detected by employing a tumor-bearing mouse model to test inhibition effect of cGAMP on subcutaneously transplanted tumor.
# (§2) Animals: Nude mouse BALB/c, male, with a body weight of 16-18 g, 4-6 weeks old, SPF grade, purchased from SLAC LABORATORY ANIMAL [certification number: SCXK (Shanghai) 2007-0005].
# (§3) Dose: cGAMP was injected into abdominal cavities of mice, and two dose groups were set as followed: 10 mg/kg and 40 mg/kg.
# (§4) Experimental Controls: • Negative control: brine solution • Positive control: 5-fluorouracil (5-FU), with a dose of 20 mg/kg
# (§5) Administration Method: • Administration route: administration by intraperitoneal injection • Administration frequency: once a day for 14 days • Number of each group of animals: 8
# (§6) Tumor cell lines: human gastric carcinoma cell line MNK-45, human lung adenocarcinoma cell line A549, human colorectal carcinoma cell line Lovo, human hepatocellular carcinoma cell line SMMC-7721, human prostatic carcinoma cell line PC-3 and human pancreatic carcinoma cell SW1990, purchased from the Cell Bank of the Chinese Academy of Sciences, are included in the above mentioned tumor cell lines.
# (§7) 1. establishing a tumor-bearing mouse model and allowing intervention, including: cultivating and passaging cells, collecting cells in logarithmic phase, and making into a cell suspension with a concentration of 1.0×10^7/ml, injecting 0.2 ml of the cell suspension into the nude mice through their right arm armpits to make them get a tumor, and randomly dividing the nude mice into four groups: a negative control which is a group injected with brine through intraperitoneal injection, a 5-FU group which is a group injected with 5-FU through intraperitoneal injection, a cGMP-AMP low-dose group which is a group injected with 10 mg/kg of cGMP-AMP through intraperitoneal injection, and a cGMP-AMP high-dose group which is a group injected with 40 mg/kg of cGMP-AMP through intraperitoneal injection, administrating once a day for 14 days, then killing the nude mice and weighing the wts. Of tumor and calculating a tumor inhibition rate, which is calculated by the following equation: tumor inhibition rate[1−average tumor weight of experimental groups/average tumor weight of A group]×100%, wherein the experimental groups are B, C and D groups; separately establishing 6 subcutaneously implanted tumor models: human gastric carcinoma cell line MNK-45, human lung adenocarcinoma cell line A549, human colorectal carcinoma cell line Lovo, human hepatocellular carcinoma cell line SMMC-7721, human prostatic carcinoma cell line PC-3 and human pancreatic carcinoma cell SW1990, and observing the effect of cGAMP; and
# (§8) 2. allowing statistical analysis: representing the data by x±s, processing the data with a software SPSS-10.0, analyzing by one-way ANOVA, comparing the significance of tumor weight differences among the groups, wherein the level of significance is a=0.05.
# [2] = system: human hepatocellular carcinoma cell line SMMC-7721; test: Subcutaneously transplanted tumor of human hepatocellular carcinoma cell line SMMC-7721 in nude mice; conditions: SMMC-7721 in BALB/c nude mice; for Average Tumor Weight: mean ± SD, n = 8
# Method: as §1, §2, §3, §4, §5, §6, §7, §8
# [3] = system: human colorectal carcinoma cell line Lovo; test: Subcutaneously transplanted tumor of human colorectal carcinoma cell line Lovo in nude mice; conditions: Lovo in BALB/c nude mice; for Average Tumor Weight: mean ± SD, n = 8
# Method: as §1, §2, §3, §4, §5, §6, §7, §8
# [4] = system: human prostatic carcinoma cell line PC-3; test: Subcutaneously transplanted tumor of human prostatic carcinoma cell line PC-3 in nude mice; conditions: PC-3 in BALB/c nude mice; for Average Tumor Weight: mean ± SD, n = 8
# Method: as §1, §2, §3, §4, §5, §6, §7, §8
# [5] = system: human lung adenocarcinoma cell line A549; test: Subcutaneously transplanted tumor of human lung adenocarcinoma cell line A549 in nude mice; conditions: A549 in BALB/c nude mice; for Average Tumor Weight: mean ± SD, n = 8
# Method: as §1, §2, §3, §4, §5, §6, §7, §8
# [6] = system: human gastric carcinoma cell line MNK-45; test: Subcutaneously transplanted tumor of human gastric carcinoma cell line MNK-45 in nude mice; conditions: MNK-45 in BALB/c nude mice; for Average Tumor Weight: mean ± SD, n = 8
# Method: as §1, §2, §3, §4, §5, §6, §7, §8
# ICR mice = test: Acute toxicity, single tail intravenous injection
# Method: The materials are 20 of ICR mice, which are purchased from SLAC LABORATORY ANIMAL [certification number: SCXK (Shanghai) 2007-0005], are half male and half female, have body weights within 18-22 g, are fed with granular feedstuff and are free to find food and drink.
# The method includes: subjecting the ICR mice to single tail intravenous injection of 10 ml/kg cGMAP based on their body weights, namely 2 g/kg, observing toxic reactions and deaths after administration within 14 days.
# [7] = 20 mg/kg intraperitoneal once a day for 14 days
# [8] = high dose 40 mg/kg intraperitoneal once a day for 14 days
# [9] = low dose 10 mg/kg intraperitoneal once a day for 14 days
# [10] = single tail intravenous injection 2 g/kg (10 ml/kg)
smiles,measurement,setting,value
"O=c1[nH]cc(F)c(=O)[nH]1 [5-FU, 5-fluorouracil, reference compound]",Average Tumor Inhibition Rate,[1]; [7],76.8%
same,Average Tumor Weight,[1]; [7],0.685 ± 0.086 (g)
same,Average Tumor Inhibition Rate,[2]; [7],72.7%
same,Average Tumor Weight,[2]; [7],0.853 ± 0.082 (g)
same,Average Tumor Inhibition Rate,[3]; [7],71.7%
same,Average Tumor Weight,[3]; [7],0.769 ± 0.101 (g)
same,Average Tumor Inhibition Rate,[4]; [7],76.3%
same,Average Tumor Weight,[4]; [7],0.728 ± 0.102 (g)
same,Average Tumor Inhibition Rate,[5]; [7],70.3%
same,Average Tumor Weight,[5]; [7],0.843 ± 0.210 (g)
same,Average Tumor Inhibition Rate,[6]; [7],76.9%
same,Average Tumor Weight,[6]; [7],0.619 ± 0.214 (g)
"Nc1nc2c(ncn2[C@@H]2O[C@@H]3COP(=O)(O)O[C@H]4[C@@H](O)[C@H](n5cnc6c(N)ncnc65)O[C@@H]4COP(=O)(O)O[C@@H]2[C@@H]3O)c(=O)[nH]1 [cGAMP, cyclized GMP-AMP]",Average Tumor Inhibition Rate,[1]; [8],67.4%
same,Average Tumor Weight,[1]; [8],0.964 ± 0.109 g
same,Average Tumor Inhibition Rate,[1]; [9],44.8%
same,Average Tumor Weight,[1]; [9],1.631 ± 0.133 (g)
same,Average Tumor Inhibition Rate,[2]; [8],65.2%
same,Average Tumor Weight,[2]; [8],1.089 ± 0.130 g
same,Average Tumor Inhibition Rate,[2]; [9],38.7%
same,Average Tumor Weight,[2]; [9],1.916 ± 0.174 (g)
same,Average Tumor Inhibition Rate,[3]; [8],55.7%
same,Average Tumor Weight,[3]; [8],1.204 ± 0.122 (g)
same,Average Tumor Inhibition Rate,[3]; [9],36.9%
same,Average Tumor Weight,[3]; [9],1.714 ± 0.137 g
same,Average Tumor Inhibition Rate,[4]; [8],69.6%
same,Average Tumor Weight,[4]; [8],0.932 ± 0.148 g
same,Average Tumor Inhibition Rate,[4]; [9],52.2%
same,Average Tumor Weight,[4]; [9],1.467 ± 0.201 (g)
same,Average Tumor Inhibition Rate,[5]; [8],59.4%
same,Average Tumor Weight,[5]; [8],1.151 ± 0.121 (g)
same,Average Tumor Inhibition Rate,[5]; [9],44.9%
same,Average Tumor Weight,[5]; [9],1.562 ± 0.102 (g)
same,deaths within 14 days after administration,ICR mice; [10],no death was observed
same,"pathological changes in organs by naked eyes on dissection, 15th day",ICR mice; [10],no obvious pathological changes in organs were observed
same,toxic reactions after the single tail intravenous injection,ICR mice; [10],normal physiological activity was observed
same,maximum tolerated dose of intravenous injection MTD,"ICR mice; single tail intravenous injection, observed 14 days",not less than 2 g/kg
same,Average Tumor Inhibition Rate,[6]; [8],61.3%
same,Average Tumor Weight,[6]; [8],1.037 ± 0.198 (g)
same,Average Tumor Inhibition Rate,[6]; [9],38.7%
same,Average Tumor Weight,[6]; [9],1.641 ± 0.175 (g)
